Earlier results on 2 compounds are cited in patent US6939965B2, “Process of manufacture of 1,3-oxathiolane nucleosides using titanium trichloride mono-isopropoxide” (Gilead Sciences, Inc., priority 1998, dated 2005).

Data set [1] has as its system HIV. Conditions: racemic mixture, compared with AZT.
Data set [2] deals with HIV.

SMILES strings stand for the structures.

As to `Nc1ccn(C2CSC(CO)O2)c(=O)n1` (racemic) [BCH-189, 2-hydroxymethyl-5-(cytosin-1-yl)-1,3-oxathiolane], in the data set on HIV [1], the “activity against HIV relative to AZT” value is “approximately the sane activity against HIV as AZT”.

Regarding `Nc1nc(=O)n([C@@H]2CS[C@H](CO)O2)cc1F` (relative stereo) [FTC, cis-2-hydroxymethyl-5-(5-fluorocytosin-1-yl)-1,3-oxathiolane], in the data set on HIV [2], the HIV activity entry is reported as “potent HIV activity”.
